Assay results from patent publication US10577365B2, “Derivatives of quinoline as inhibitors of DYRK1A and/or DYRK1B kinases” (Felicitex Therapeutics, Inc., priority 2016, dated 2020).
pIC50: −log10 of the molar value. Structures can show the parent of a compound that is named as a salt.

Tests used:
DYRK1B = target: T1, DYRK1B (Homo sapiens, UniProt Q9Y463); assay: DYRK1B in vitro kinase assay (ADP-Glo); type: biochemical; settings: ADP-Glo assay, ATP 15 μM (Km), substrate 7 μM, enzyme 1 nM or 0.3 nM, 1 h, rt; read-out: DYRK1B IC50
T1 construct: purchased Carna Bioscence (Carna Biosciences) 04-131
T1 sequence (Q9Y463 whole entry): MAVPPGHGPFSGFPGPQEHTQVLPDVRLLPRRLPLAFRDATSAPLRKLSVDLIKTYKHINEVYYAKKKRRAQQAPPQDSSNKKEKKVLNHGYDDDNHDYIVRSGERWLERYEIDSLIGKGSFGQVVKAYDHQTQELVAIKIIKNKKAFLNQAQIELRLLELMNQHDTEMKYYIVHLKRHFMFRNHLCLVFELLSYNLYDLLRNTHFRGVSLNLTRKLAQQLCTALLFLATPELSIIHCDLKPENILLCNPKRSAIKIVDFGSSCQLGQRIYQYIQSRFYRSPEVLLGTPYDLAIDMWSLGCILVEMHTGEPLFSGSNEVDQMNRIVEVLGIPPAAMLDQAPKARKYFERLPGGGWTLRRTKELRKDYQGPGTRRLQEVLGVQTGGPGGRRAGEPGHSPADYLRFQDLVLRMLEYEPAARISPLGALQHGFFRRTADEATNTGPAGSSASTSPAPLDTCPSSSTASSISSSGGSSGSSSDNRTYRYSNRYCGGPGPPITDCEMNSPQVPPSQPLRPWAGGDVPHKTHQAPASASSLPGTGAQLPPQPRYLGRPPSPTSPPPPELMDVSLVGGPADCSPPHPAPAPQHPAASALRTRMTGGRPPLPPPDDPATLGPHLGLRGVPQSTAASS

DYRK1A = target: T2, DYRK1A (Homo sapiens, UniProt Q13627); assay: DYRK1A in vitro kinase assay (ADP-Glo); type: biochemical; settings: ATP 70 μM (Km), substrate 3 μM, enzyme 2 nM or 0.7 nM, 30 min, rt
T2 construct: purchased Carna Bioscence (Carna Biosciences) 04-130

Structure (SMILES) | pIC50 (DYRK1B) | pIC50 (DYRK1A)
CNC(=O)c1cnc2[nH]cc(-c3ccc4ncc(NCC5CCOCC5)c(N5CCOCC5)c4c3)c2c1 [Example 58, N-Methyl-3-[4-(morpholin-4-yl)-3-[(oxan-4-ylmethyl)amino]quinolin-6-yl]-1H-pyrrolo[2,3-b]pyridine-5-carboxamide] | > 8.00 | 7.00 to 8.00
N[C@H]1CC[C@H](Nc2c([N+](=O)[O-])cnc3ccc(-c4c[nH]c5ncc(C(=O)NCc6cccnc6)cc45)cc23)CC1 [Example 59, 3-{4-[(4-Aminocyclohexyl)amino]-3-nitroquinolin-6-yl}-N-(pyridin-3-ylmethyl)-1H-pyrrolo[2,3-b]pyridine-5-carboxamide hydrochloride] | 7.00 to 8.00 | 7.00 to 8.00
N[C@H]1CC[C@H](Nc2c(NCC3CCOCC3)cnc3ccc(-c4c[nH]c5ncc(C(=O)NCc6cccnc6)cc45)cc23)CC1 [Example 60, 3-{4-[(4-Aminocyclohexyl)amino]-3-[(oxan-4-ylmethyl)amino]quinolin-6-yl}-N-(pyridin-3-ylmethyl)-1H-pyrrolo[2,3-b]pyridine-5-carboxamide hydrochloride] | > 8.00 | 7.00 to 8.00
Nc1cnc2ccc(-c3c[nH]c4ncc(C(=O)NCc5cccnc5)cc34)cc2c1 [Example 61, 3-(3-Aminoquinolin-6-yl)-N-(pyridin-3-ylmethyl)-1H-pyrrolo[2,3-b]pyridine-5-carboxamide] | > 8.00 | > 8.00
CC(=O)Nc1cnc2ccc(-c3c[nH]c4ncc(C(=O)NCc5cccnc5)cc34)cc2c1 [Example 62, 3-(3-Acetamidoquinolin-6-yl)-N-(pyridin-3-ylmethyl)-1H-pyrrolo[2,3-b]pyridine-5-carboxamide] | > 8.00 | > 8.00
O=C(NCc1cccnc1)c1cnc2[nH]cc(-c3ccc4ncc(NCC5CCOCC5)cc4c3)c2c1 [Example 63, 3-{3-[(Oxan-4-ylmethyl)amino]quinolin-6-yl}-N-(pyridin-3-ylmethyl)-1H-pyrrolo[2,3-b]pyridine-5-carboxamide] | > 8.00 | > 8.00
CN1CCC(N(C)c2c([N+](=O)[O-])cnc3ccc(-c4c[nH]c5ncccc45)cc23)CC1 [Example 65, N-Methyl-N-(1-methylpiperidin-4-yl)-3-nitro-6-{1H-pyrrolo[2,3-b]pyridin-3-yl}quinolin-4-amine] | 7.00 to 8.00 | 7.00 to 8.00
CC(=O)N1CCC(Nc2c(N)cnc3ccc(-c4c[nH]c5ncccc45)cc23)CC1 [Example 66, 1-{4-[(3-Amino-6-{1H-pyrrolo[2,3-b]pyridin-3-yl}quinolin-4-yl)amino]piperidin-1-yl}ethan-1-one] | > 8.00 | > 8.00
